Assay results from patent publication US20230393140A1, “BINDING ASSAYS INVOLVING A PLURALITY OF SYNTHETIC COMPOUNDS, TARGETS, AND COUNTER TARGETS” (SRI International, priority 2020, published 2023).
Numbered stars: 1 amine (or outer) side, 2 acyl side, 3 side chain; on linkers, the order of the positions; unused ones are H or OH. Square brackets hold non-standard residues; d marks the D form. Peptide text beside a SMILES is read from it. * marks the point of attachment. 5FAM = O=C1OC2(c3ccc(O)cc3Oc3cc(O)ccc32)c2ccc(C(=O)*)cc21; NHCH2C6H4(4-CH2CONH2) = NC(=O)Cc1ccc(CN*)cc1; X1 = O=C(Cc1ccc(CN[*:1])cc1)[*:2]

Assays:
[1] = assay type: in vitro ADME; details: 17 h
Protocol: For human plasma stability, lyophilized human plasma was reconstituted in sterile water for injection, aliquoted into 200 uL aliquots and stored frozen at −80 degrees C. prior to the stability studies. For the stability studies three aliquots per NNP were thawed at room temperature. An additional set of three aliquots for a positive control peptide (Angiotensin I) were also thawed. The incubations for the plasma stability were initiated by mixing 2 uL of a 2 mM stock solution of NNP IL6R-87-8 or positive control in DMSO with the 200 uL thawed plasma aliquot. After briefly vortex-mixing, 50 uL zero-time-point samples were removed, mixed with 50 uL of water and 400 uL of acetonitrile and frozen on dry ice until all time point samples had been collected. The samples were incubated at 37 degrees C. with samples removed and water/acetonitrile added at 1 hour, 3 hours, and 17 hours. Proteins were precipitated by centrifuging the samples at 17,000 G, 4 degrees C. for 1 hour. The supernatants were removed and concentrated in a centrifugal vacuum concentrator (GeneVac Genie II) at 45 degrees C. until the volume had been reduced to around 60 uL. […]

proteinase K = proteinase K (Parengyodontium album, UniProt P06873); assay: Proteinase K stability assay; assay type: in vitro ADME; details: 37 degrees C; aliquots at 0, 1.5 and 16 hours; LC-MS
proteinase K, sequence (P06873 106-384, species assumed): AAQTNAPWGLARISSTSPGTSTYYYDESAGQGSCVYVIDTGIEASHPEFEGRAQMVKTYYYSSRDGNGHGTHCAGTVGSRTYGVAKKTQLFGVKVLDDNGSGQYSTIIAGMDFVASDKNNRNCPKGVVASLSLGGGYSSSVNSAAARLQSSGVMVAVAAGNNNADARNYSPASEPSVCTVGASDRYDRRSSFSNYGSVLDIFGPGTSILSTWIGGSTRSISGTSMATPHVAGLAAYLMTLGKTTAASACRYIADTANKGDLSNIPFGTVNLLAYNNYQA
Protocol: For proteinase K stability, solutions of each tested compound (200 μM) in 10% DMSO and 20 mM Tris HCl at pH 8 were prepared. Proteinase K was added to a final concentration of […] and 100 μM of the tested compound in 5% DMSO and 10 mM Tris HCl at pH 8. The solutions were incubated at 37 degrees C. and aliquots after 0 hours, 1.5 hours and 16 hours were analyzed by LC-MS.

IL-6R = molecular target: T1, IL-6R (Homo sapiens, UniProt P08887); assay: MST binding affinity of resynthesized NNP hits to IL-6R; details: IL-6R; ester versus amide amino acid-PAM bond polymers, library NNP2
T1 construct: purchased Creative Biomart IL6R-584H
T1 sequence (P08887 20-355 limits assumed): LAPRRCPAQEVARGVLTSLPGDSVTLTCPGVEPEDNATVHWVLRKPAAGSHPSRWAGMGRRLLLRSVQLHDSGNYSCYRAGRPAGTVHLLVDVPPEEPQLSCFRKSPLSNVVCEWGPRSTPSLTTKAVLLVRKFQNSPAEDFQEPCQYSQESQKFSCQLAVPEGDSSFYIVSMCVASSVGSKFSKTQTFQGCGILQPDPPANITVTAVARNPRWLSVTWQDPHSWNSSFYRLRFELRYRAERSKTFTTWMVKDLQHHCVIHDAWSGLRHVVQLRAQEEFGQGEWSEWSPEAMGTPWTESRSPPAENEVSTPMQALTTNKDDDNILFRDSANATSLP
Protocol: Hit binding affinity to various targets were determined using Microscale Thermophoresis (MST). MST experiments were performed on a Monolith NT.115pico (NanoTemper Technologies GmbH, Munich, Germany). Measurements were performed at room temperature, in triplicate with incubation periods of 15, 30 and 45 minutes. […] Targets were labeled using Nanotemper Monolith 2nd Generation Protein Labeling Kits. RED-MALEIMIDE (Maleimide-647-dye) labeling kit was used for K-Ras and RED-NHS (NHS-647-dye) labeling kit was used for IL-6, IL-6R, TNFα and ASGPR. The buffer for the ASGPR contained 20 mM HEPES pH 7.4, 150 mM NaCl, 10 mM MgCl2, 2 mM CaCl2, 0.05% Pluronic F-127, and 1 mM DTT; for IL-6 contained 20 mM HEPES pH 7.4, 150 mM KCl, 10 mM MgCl2, and 0.1% Pluronic F-127; for the soluble IL-6 receptor 20 mM HEPES pH 7.4, 150 mM NaCl, 10 mM MgCl2, and 0.05% Tween-20; for K-Ras 20 mM HEPES pH 7.4, 150 mM NaCl, 10 mM MgCl2, 0.05% Tween-20 and 1 mM DTT; for TNFα 10 mM HEPES pH 7.4, 150 mM NaCl, 10 mM MgCl2, 0.05% Polysorbate-20. Triplicate data was analyzed using MO.AffinityAnalysis software (NanoTemper Technologies GmbH).

[2] = test system: HEK293 cells (non-expressing); assay: ASGPR uptake assay, flow cytometry, HEK293; assay type: cell-based, human; details: fluorescein-labeled compounds
Protocol: (§1) The HEK293T (human embryonic kidney cells) and human hepatoma HepG2 cells were grown according to the protocols provided by the American Type Culture Collection (ATCC). When cells reached cell were seeded at ˜1.5×10^5 cells/well in 24-well culture plate for the uptake assay. After at least 16 hours of culture to allow cell attach and equilibrate, the compound treatment was set up for the uptake assay.
The fluorescein-labeled NNPs or fluorescein-labeled N-acetylgalactosamine (GalNAc) recognizing ASGRPR were added to wells at indicated concentrations and incubated for 2 hours. Two plates were prepared for each treatment condition, one serving as 4 degrees C. no internalization control that was kept on ice during incubation, while the second plate was incubated at 37 degrees C. to allow for energy dependent internalization. Following the incubation period, all plates were placed on ice and washed three times with ice-cold PBS/3% BSA/2 mM EDTA and then lifted with trypsin. Cells were transferred to a 96-well round bottom plates in FACS buffer. Cells were then analyzed by flow cytometry using LSR-HJ with HTS sampler (BD Biosciences, San Jose, CA, USA). Data (mean fluorescence intensities) and further analyzed using Flowjo software (BD Biosciences, San Jose, CA, USA). The internalized fraction was expressed as the difference between the corresponding 4 degrees C. and 37 degrees C. […]

[3] = test system: HepG2 cells (high ASGPR expressing); assay: ASGPR uptake assay, flow cytometry, HepG2; assay type: cell-based, human; details: fluorescein-labeled compounds, flow cytometry, 2 hours
Protocol: as §1
The fluorescein-labeled NNPs or fluorescein-labeled N-acetylgalactosamine (GalNAc) recognizing ASGRPR were added to wells at indicated concentrations and incubated for 2 hours. Two plates were prepared for each treatment condition, one serving as 4 degrees C. no internalization control that was kept on ice during incubation, while the second plate was incubated at 37 degrees C. to allow for energy dependent internalization. Following the incubation period, all plates were placed on ice and washed three times with ice-cold PBS/3% BSA/2 mM EDTA and then lifted with trypsin. Cells were transferred to a 96-well round bottom plates in FACS buffer. Cells were then analyzed by flow cytometry using LSR-HJ with HTS sampler (BD Biosciences, San Jose, CA, USA). Data (mean fluorescence intensities) and further analyzed using Flowjo software (BD Biosciences, San Jose, CA, USA). The internalized fraction was expressed as the difference between the corresponding 4 degrees C. and 37 degrees C. MFIs as previously described.

K-Ras = molecular target: T2, K-Ras (Homo sapiens, UniProt P01116, G12V); assay: MST binding affinity of resynthesized NNP hits to K-Ras; details: read-out: KD (nM) [95% conf. int]; MST; NNP1 library hit; target K-Ras; one-site binding model
T2 construct: purchased Cytoskeleton Inc. CS-RS04
How it was run: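 K-Ras G12V was GTP-loaded (EDTA exchange, 750 μM GTP, 2 h at 30° C, then MgCl2) and labeled with maleimide-647 dye. MST was run at room temperature in 20 mM HEPES pH 7.4, 150 mM NaCl, 10 mM MgCl2, 0.05% Tween-20, 1 mM DTT. Incubations lasted 15, 30 and 45 min; triplicate data fitted for affinity.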

With CC(C)C[C@H](NC(=O)[C@@H](CCCNC(=N)N)NC(=O)[C@@H](C)NC(=O)Cc1ccc(CNC(=O)[C@H](CC(C)C)NC(=O)[C@@H](CCCNC(=N)N)NC(=O)[C@@H](CCC(=O)O)NC(=O)Cc2ccc(CNC(=O)[C@H](C)NC(=O)[C@@H](CCCCN)NC(=O)[C@@H](Cc3ccc(O)cc3)NC(=O)Cc3ccc(CNC(=O)[C@H](C)NC(=O)[C@@H](CCCNC(=N)N)NC(=O)[C@@H](Cc4ccccc4)NC(=O)Cc4ccc(CNC(=O)[C@H](Cc5ccccc5)NC(=O)[C@@H](CO)NC(=O)[C@@H](CCCNC(=N)N)NC(=O)Cc5ccc(CNC(=O)[C@@H](NC(=O)[C@@H](CO)NC(=O)[C@@H](Cc6ccc(O)cc6)NC(=O)Cc6ccc(CNC(=O)[C@H](Cc7ccccc7)NC(=O)[C@H](NC(=O)[C@@H](CC(N)=O)NC(=O)c7ccc8c(c7)C(=O)OC87c8ccc(O)cc8Oc8cc(O)ccc87)C(C)C)cc6)C(C)C)cc5)cc4)cc3)cc2)cc1)C(=O)NCc1ccc(CC(=O)N2CCC[C@@H]2C(=O)N[C@H](CCCNC(=N)N)C(=O)N[C@@H](C)C(=O)NCc2ccc(CC(=O)N[C@H](Cc3ccccc3)C(=O)N[C@H](CCCCN)C(=O)NCC(=O)NCc3ccc(CC(N)=O)cc3)cc2)cc1 [IL6R-87-8, Fluorescein-(D)Asn-(D)Val-(L)Phe-PAM-(D)Tyr-(D)Ser-(L)Val-PAM-(D)Arg-(D)Ser-(L)Phe-PAM-(D)Phe-(D)Arg-(L)Ala-PAM-(D)Tyr-(D)Lys-(L)Ala-PAM-(D)Glu-(D)Arg-(L)Leu-PAM-(D)Ala-(D)Arg- (L)Leu-PAM-(D)Pro-(D)Arg-(L)Ala-PAM-(D)Phe-(D)Lys-Gly-PAM] (5FAM-[dN][dV]F[X1][dY][dS]V[X1][dR][dS]F[X1][dF][dR]A[X1][dY][dK]A[X1][dE][dR]L[X1][dA][dR]L[X1][dP][dR]A[X1][dF][dK]G-{NHCH2C6H4(4-CH2CONH2)}) the “Stability in human plasma” value [1] was “stayed largely intact”, the “Stability in the presence of proteinase K” value (proteinase K) was “minimal degradation” and the Kd (IL-6R) was 0.62 nM.

With CC(C)C[C@@H](NC(=O)[C@@H](CCC(=O)O)NC(=O)[C@@H](C)NC(=O)Cc1ccc(CNC(=O)[C@H](Cc2ccccc2)NC(=O)[C@@H](CCCNC(=N)N)NC(=O)[C@@H](Cc2ccc(O)cc2)NC(=O)[C@@H](CCCCN)NC(=O)[C@H]2CCCN2C(=O)Cc2ccc(CNC(=O)CNC(=O)[C@@H](CCCNC(=N)N)NC(=O)[C@@H](CCC(=O)O)NC(=O)[C@@H](CO)NC(=O)[C@H]3CCCN3C(=O)Cc3ccc(CNC(=O)[C@H](C)NC(=O)[C@@H](CCCNC(=N)N)NC(=O)[C@H]4CCCN4C(=O)[C@H](NC(=O)CNC(=O)Cc4ccc(CNC(=O)[C@H](Cc5ccccc5)NC(=O)[C@@H](CCC(=O)O)NC(=O)[C@@H](Cc5c[nH]cn5)NC(=O)[C@H]5CCCN5C(=O)[C@@H](CO)NC(=O)c5ccc6c(c5)C(=O)OC65c6ccc(O)cc6Oc6cc(O)ccc65)cc4)C(C)C)cc3)cc2)cc1)C(=O)N[C@H](CCCCN)C(=O)N[C@@H](C)C(=O)NCc1ccc(CC(=O)NCC(=O)N[C@H](Cc2c[nH]c3ccccc23)C(=O)N[C@H](Cc2c[nH]cn2)C(=O)N[C@H](CCCNC(=N)N)C(=O)N[C@@H](C)C(=O)NCc2ccc(CC(N)=O)cc2)cc1 [KRAS-1-14] (5FAM-[dS][dP][dH][dE]F[X1]G[dV][dP][dR]A[X1][dP][dS][dE][dR]G[X1][dP][dK][dY][dR]F[X1][dA][dE][dL][dK]A[X1]G[dW][dH][dR]A-{NHCH2C6H4(4-CH2CONH2)}) the “Internalization (cell uptake) in HEK293” value [2] was “minimal uptake”, the “Internalization (cell uptake) in HepG2” value [3] was “minimal uptake” and the Kd (K-Ras) was 155 nM.
